Measured values from patent US20240118287A1, “ANALYSIS PLATE FOR A MASS SPECTROMETRY ANALYSIS AND ASSOCIATED METHOD FOR CHARACTERIZING MICROORGANISMS BY MASS SPECTROMETRY” (priority 2021, published 2024).
In brackets after ≈: the same amount, converted by molar mass.

What was measured:
Assay type in all cases: cell-based
Ref 6 S. aureus = assay: MIC by microdilution in broth, reference strain Ref 6; parameters: key to Phenotype (R = resistant, S = sensitive): RA signifies resistance to amoxicillin; RC signifies resistance to ceftriaxone; RM signifies resistance to meropenem; RO resistance to oxacillin; SA signifies sensitive to amoxicillin; SC signifies sensitive to ceftriaxone; SM signifies sensitive to meropenem; SO sensitive to oxacillin
Method: (§1) The minimum inhibitory concentration (MIC in μg/ml) was determined by microdilution in broth, a technique very widely used by a person skilled in the art.

Ref 7 S. aureus = assay: MIC by microdilution in broth, reference strain Ref 7; parameters: key to Phenotype (R = resistant, S = sensitive): RA signifies resistance to amoxicillin; RC signifies resistance to ceftriaxone; RM signifies resistance to meropenem; RO resistance to oxacillin; SA signifies sensitive to amoxicillin; SC signifies sensitive to ceftriaxone; SM signifies sensitive to meropenem; SO sensitive to oxacillin; conditions: mecA
Method: as §1

[1] = test system: Isolate 12 (Staphylococcus epidermidis); assay: MIC determination on analysis plate with oxacillin concentration range, MALDI-TOF (Example 5); conditions: read-out: MIC by the method of the invention
Method: (§2) The analysis cassettes thus prepared were incubated in the stove at 37° C. for 2, 3, 4 or 5 hours.
(§3) At the end of the incubation step, the analysis plates are placed on very absorbent, dry blotting paper, with an absorption capacity of 25 μL·cm^−2, so that the drops present on the analysis plate are aspirated by capillarity through the analysis zones made of porous material.
(§4) 1 μl of HCCA matrix, alpha-cyano 4-hydroxycinnamic acid (VITEK®MS-CHCA, bioMérieux reference 411071) was deposited on the analysis zones, comprising the microorganisms and the antimicrobial agent, and on the calibration zones comprising the calibrant.
(§5) The analysis plate is then dried and analyzed by VITEK®MS as described in example 1.
(§6) The dilutions of Staphylococci of the reference strains and of the isolates were analyzed on the analysis plates according to the invention with 4 deposits of oxacillin at 0.125 μg/ml, 4 deposits of oxacillin at 0.25 μg/ml, 4 deposits of oxacillin at 0.5 μg/ml, 4 deposits of oxacillin at 1 μg/ml, 4 deposits of oxacillin at 2 μg/ml, 4 deposits of oxacillin at 4 μg/ml, 4 deposits of oxacillin at 8 μg/ml, 4 deposits of oxacillin at 16 μg/ml, 4 deposits of oxacillin at 32 μg/ml, 4 deposits of oxacillin at 64 μg/ml, 4 deposits of oxacillin at 128 μg/ml, 4 deposits of oxacillin at 256 μg/ml.

[2] = test system: Isolate 9 (Staphylococcus aureus); assay: as above; conditions: read-out: MIC by the method of the invention
Method: as §2, §3, §4, §5, §6

[3] = test system: reference strain No. 7 (S. aureus); assay: as above
Method: as §2, §3, §4, §5, §6

[4] = test system: Isolate 11 (Staphylococcus aureus); assay: as above; conditions: read-out: MIC by the method of the invention
Method: as §2, §3, §4, §5, §6

[5] = test system: Reference strain No. 6 (S. aureus); assay: as above
Method: as §2, §3, §4, §5, §6

[6] = test system: Isolate 10 (Staphylococcus aureus); assay: as above; conditions: read-out: MIC by the method of the invention
Method: as §2, §3, §4, §5, §6

[7] = test system: Isolate 12 (Staphylococcus epidermidis); assay: Resistance characterization on functionalized analysis plate, MALDI-TOF (Example 4); conditions: isolate 12 (S. epidermidis); oxacillin 2 μg/ml; threshold identification probability ≥90% for at least 3 deposits out of 4
Method: (§7) This cassette comprises a gasket so as to be able to dispose the analysis plate on a sponge impregnated to saturation with Muller-Hinton culture medium. The sponge impregnated with a culture medium serves as a support, and it is made of porous material as described in the description.
(§8) A cover was placed on the cassette containing the analysis plate so as to be clipped on the cassette and close the device without touching the top of the drops.
as §2, §3, §4, §5
(§9) The isolates identified in example 1 were diluted to 0.5 McFarland (McF) in Muller-Hinton medium (bioMérieux reference AEB 110699), then diluted again to 1/100° for the Gram-negative bacteria and to 1/10° for the Gram-positive bacteria, always in Muller-Hinton medium.
(§10) Drops of 2 μl of the final dilutions were deposited on the analysis zones of the analysis plates according to the invention as described in example 2. As before, the dilutions of E. coli and of K. pneumoniae were analyzed on the targets with 16 deposits of amoxicillin, 16 deposits of ceftriaxone and 16 deposits of meropenem. The dilutions of Staphylococci were analyzed on the targets with 2 μg/ml of oxacillin.
(§11) When no sample deposit was provided on an analysis zone, this zone is covered with a Parafilm M plastic film (Bemis North America) before putting the analysis plate in the cassette. In this way, the analysis zone was not brought into contact with the culture medium contained in the sponge impregnated to saturation. The positions unused in the first analysis thus remained usable for a subsequent analysis.
(§12) The analysis was carried out according to the same procedure as in example 3 with an incubation of 4 h for all the microorganisms. Moreover, the results were interpreted as in example 3, i.e. with a threshold of identification probability greater than or equal to 90% for at least 3 deposits out of 4.

[8] = test system: Isolate 9 (Staphylococcus aureus); assay: as above; conditions: isolate 9 (S. aureus); oxacillin 2 μg/ml; threshold identification probability ≥90% for at least 3 deposits out of 4
Method: as §7, §8, §2, §3, §4, §5, §9, §10, §11, §12

[9] = test system: Isolate 11 (Staphylococcus aureus); assay: as above; conditions: isolate 11 (S. aureus); oxacillin 2 μg/ml; threshold identification probability ≥90% for at least 3 deposits out of 4
Method: as §7, §8, §2, §3, §4, §5, §9, §10, §11, §12

[10] = test system: Isolate 10 (Staphylococcus aureus); assay: as above; conditions: isolate 10 (S. aureus); oxacillin 2 μg/ml; threshold identification probability ≥90% for at least 3 deposits out of 4
Method: as §7, §8, §2, §3, §4, §5, §9, §10, §11, §12

Ref 1 K. pneumoniae = assay: MIC by microdilution in broth, reference strain Ref 1; parameters: key to Phenotype (R = resistant, S = sensitive): RA signifies resistance to amoxicillin; RC signifies resistance to ceftriaxone; RM signifies resistance to meropenem; RO resistance to oxacillin; SA signifies sensitive to amoxicillin; SC signifies sensitive to ceftriaxone; SM signifies sensitive to meropenem; SO sensitive to oxacillin
Method: as §1

Ref 2 K. pneumoniae = assay: MIC by microdilution in broth, reference strain Ref 2; parameters: key to Phenotype (R = resistant, S = sensitive): RA signifies resistance to amoxicillin; RC signifies resistance to ceftriaxone; RM signifies resistance to meropenem; RO resistance to oxacillin; SA signifies sensitive to amoxicillin; SC signifies sensitive to ceftriaxone; SM signifies sensitive to meropenem; SO sensitive to oxacillin
Method: as §1

[11] = test system: Isolate 3 (Escherichia coli); assay: Resistance characterization on functionalized analysis plate, MALDI-TOF (Example 4); conditions: threshold identification probability ≥90% for at least 3 deposits out of 4, amoxicillin 2, ceftriaxone 24, meropenem 2 μg/ml
Method: as §7, §8, §2, §3, §4, §5, §9, §10, §12

[12] = test system: Isolate 1 (Escherichia coli); assay: as above; conditions: threshold identification probability ≥90% for at least 3 deposits out of 4, amoxicillin 2, ceftriaxone 24, meropenem 2 μg/ml
Method: as §7, §8, §2, §3, §4, §5, §9, §10, §12

[13] = test system: Isolate 7 (Klebsiella pneumoniae); assay: as above; conditions: isolate 7 (K. pneumoniae); threshold identification probability ≥90% for at least 3 deposits out of 4; amoxicillin 2, ceftriaxone 24, meropenem 2 μg/ml
Method: as §7, §8, §2, §3, §4, §5, §9, §10, §12

[14] = test system: Isolate 5 (Escherichia coli); assay: as above; conditions: isolate 5 (E. coli); threshold identification probability ≥90% for at least 3 deposits out of 4; amoxicillin 2, ceftriaxone 24, meropenem 2 μg/ml
Method: as §7, §8, §2, §3, §4, §5, §9, §10, §12

[15] = test system: Isolate 8 (Klebsiella pneumoniae); assay: as above; conditions: isolate 8 (K. pneumoniae); threshold identification probability ≥90% for at least 3 deposits out of 4; amoxicillin 2, ceftriaxone 24, meropenem 2 μg/ml
Method: as §7, §8, §2, §3, §4, §5, §9, §10, §12

Ref 4 E. coli = assay: MIC by microdilution in broth, reference strain Ref 4; parameters: key to Phenotype (R = resistant, S = sensitive): RA signifies resistance to amoxicillin; RC signifies resistance to ceftriaxone; RM signifies resistance to meropenem; RO resistance to oxacillin; SA signifies sensitive to amoxicillin; SC signifies sensitive to ceftriaxone; SM signifies sensitive to meropenem; SO sensitive to oxacillin
Method: as §1

Ref 5 E. coli = assay: MIC by microdilution in broth, reference strain Ref 5; parameters: key to Phenotype (R = resistant, S = sensitive): RA signifies resistance to amoxicillin; RC signifies resistance to ceftriaxone; RM signifies resistance to meropenem; RO resistance to oxacillin; SA signifies sensitive to amoxicillin; SC signifies sensitive to ceftriaxone; SM signifies sensitive to meropenem; SO sensitive to oxacillin; conditions: CTX-M
Method: as §1

Ref 3 E. coli = assay: MIC by microdilution in broth, reference strain Ref 3; parameters: key to Phenotype (R = resistant, S = sensitive): RA signifies resistance to amoxicillin; RC signifies resistance to ceftriaxone; RM signifies resistance to meropenem; RO resistance to oxacillin; SA signifies sensitive to amoxicillin; SC signifies sensitive to ceftriaxone; SM signifies sensitive to meropenem; SO sensitive to oxacillin
Method: as §1

[16] = Staphylococcus aureus, microdilution in broth, read-out: Minimum inhibitory concentration (MIC in μg/ml)
[17] = Escherichia coli, microdilution in broth, read-out: Minimum inhibitory concentration (MIC in μg/ml)

In the case of `Cc1onc(-c2ccccc2)c1C(=O)N[C@@H]1C(=O)N2[C@@H]1SC(C)(C)[C@@H]2C(=O)O` [Oxacillin, oxacillin], the “Phenotype (R = resistant, S = sensitive)” value (Ref 6 S. aureus) is reported as “SO”, the MIC (Ref 6 S. aureus; [16]) is reported as 0.25 µg/mL (≈ 0.623 µM) and the MIC (Ref 7 S. aureus; [16]) is reported as 128 µg/mL (≈ 319 µM). The “Phenotype (R = resistant, S = sensitive)” value (Ref 7 S. aureus) was “RO”, the MIC [1] was 0.125 mg/L (≈ 0.311 µM) and the MIC [2] was 16 mg/L (≈ 39.9 µM). The MIC ([3]; Staphylococcus aureus, compliant with Table 2, read-out: MIC by the method of the invention) was 128 mg/L (≈ 319 µM), the “Identification probability as S. aureus” value ([3]; oxacillin 0.125 at 64 μg/ml) was 99.9% and the “Identification as S. aureus” value ([3]; oxacillin 128 and 256 μg/ml) was “not identified”. The MIC [4] was 0.5 mg/L (≈ 1.25 µM), the MIC ([5]; Staphylococcus aureus, equals Table 2 MIC, read-out: MIC, lowest growth inhibiting concentration observed by the method of the invention) was 0.25 mg/L (≈ 0.623 µM) and the “Identification as S. aureus” value ([5]; higher concentrations of oxacillin (above 0.25 μg/ml)) was “not identified”. For the same molecule, the “Identification probability as S. aureus” value ([5]; oxacillin 0.125 μg/ml, in 3 deposits out of 4) was “greater than 99.9%”, the “Identification probability as S. aureus” value ([5]; oxacillin 0.25 μg/ml, for 1 deposit out of 4) was “greater than 99.9%” and the MIC [6] was 0.25 mg/L (≈ 0.623 µM). The “Isolate characterized as resistant or sensitive to the antibiotic” value (shortened to “Isolate characterized”) [7] was “sensitive”, the “Isolate characterized” value [8] was “resistant” and the “Isolate characterized” value [9] was “sensitive”. The “Isolate characterized” value [10] was “sensitive”.

In the case of `C[C@@H](O)[C@H]1C(=O)N2C(C(=O)O)=C(S[C@@H]3CN[C@H](C(=O)N(C)C)C3)[C@H](C)[C@H]12` [Meropenem, meropenem], the “Phenotype (R = resistant, S = sensitive)” value (Ref 1 K. pneumoniae; KPC-2) is reported as “RM”, the MIC (Ref 1 K. pneumoniae; Klebsiella pneumoniae, KPC-2, microdilution in broth, read-out: Minimum inhibitory concentration (MIC in μg/ml)) is reported as 64 µg/mL (≈ 167 µM) and the MIC (Ref 2 K. pneumoniae; Klebsiella pneumoniae, OXA-48, microdilution in broth, read-out: Minimum inhibitory concentration (MIC in μg/ml)) is reported as 0.25 µg/mL (≈ 0.652 µM). The “Phenotype (R = resistant, S = sensitive)” value (Ref 2 K. pneumoniae; OXA-48) was “SM”, the “Isolate characterized” value [11] was “sensitive” and the “Isolate characterized” value [12] was “sensitive”. The “Isolate characterized” value [13] was “sensitive”, the “Isolate characterized” value [14] was “sensitive” and the “Isolate characterized” value [15] was “sensitive”. The “Phenotype (R = resistant, S = sensitive)” value (Ref 4 E. coli) was “SM”, the MIC (Ref 4 E. coli; [17]) was 0.06 µg/mL (≈ 0.156 µM) and the “Phenotype (R = resistant, S = sensitive)” value (Ref 5 E. coli) was “SM”. For the same molecule, the MIC (Ref 5 E. coli; [17]) was 0.5 µg/mL (≈ 1.3 µM), the MIC (Ref 3 E. coli; Escherichia coli, TEM-2, microdilution in broth, read-out: Minimum inhibitory concentration (MIC in μg/ml)) was 0.5 µg/mL (≈ 1.3 µM) and the “Phenotype (R = resistant, S = sensitive)” value (Ref 3 E. coli; TEM-2) was “SM”.
